Experimental findings from patent US8742129B2, “Crystalline forms of febuxostat” (Teva Pharmaceuticals Industries Ltd., priority 2009, dated 2014) are described below.

A short description of the series: Solubility in ethanol of crystalline forms. The format is physicochemical. Conditions: compared to other crystalline forms.

On to `Cc1nc(-c2ccc(OCC(C)C)c(C#N)c2)sc1C(=O)O` [Febuxostat form F10, 2-(3-cyano-4-isobutyloxyphenyl)-4-methylthiazole-5-carboxylic acid], for which the solubility in ethanol entry is listed as “better solubility in ethanol compared to other crystalline forms”.
